The results in this text go back to patent publication US20210030870A1, “MODULATION OF P62 AND STING ACTIVITY” (priority 2018, published 2021).

The test system of test [1] is STING-pathway. Description: Functional type I IFN assay on supernatants of peptide-pretreated THP1 cells. The test is classed as cell-based, human. The note with it: peptide pre-activation (10 μg/ml), co-stimulation with HT-DNA.
The test system of test [2] is STING-pathway. In words: Functional type I IFN assay (HEK-Blue IFN-α/β reporter) on supernatants of peptide-pretreated PBMCs. The test is classed as cell-based, human. The note with it: for type I IFN: PBMCs, peptide pre-activation (25 μg/ml), co-stimulation with HT-DNA.
The subject of test [3] is STING-pathway. Description: TNF-α ELISA on supernatants of peptide-pretreated PBMCs stimulated with STING agonists. Type of test: cell-based. The note with it: human primary PBMCs, peptide pre-activation (25 μg/ml, 1 hour), co-stimulation with cGAMP or HT-DNA, supernatants after 20 hours.
The subject of test [4] is STING-pathway. In words: CXCL10 ELISA on supernatants of peptide-pretreated PMA-differentiated THP1 cells. The note with it: human PMA-differentiated THP1 cells, peptide 10 μg/ml, HT-DNA treatment; listed as SEQ ID NO: 9. Type of test: cell-based. For orientation: An ELISA detects its analyte on a solid surface through an enzyme-linked reagent.
Another test deals with STING. In words: Western blotting of THP1 cells treated with PEP302. Type of test: cell-based, human. The protocol: Whole-cell extracts or immunoprecipitation samples were analyzed by immunoblotting. Samples were diluted in XT sample buffer and XT reducing agent and ran on a SDS—PAGE (Criterion™ TGX™). Trans-Blot Turbo™ Transfer System was used for the transfer of proteins to PVDF membranes (all reagents Bio-Rad). The membrane was blocked in 5% Difco™ skim milk (BD) or 5% bovine serum albumin (BSA) (Sigma). For detection of STING dimerization, samples were prepared for electrophoresis using non-reducing RIPA lysis buffer with 0.2% SDS and complete mini inhibitor (Sigma). The antibodies used for immunoblotting were as follows: rabbit anti-pSTING (S366) (Cell Signaling Technology, #85735), rabbit anti-pTBK1 (Ser172) (Cell Signaling, D52C2/#5483), rabbit anti-phospho p62 (Cell Signalling), Guinea pig anti-p62 (Progen), rabbit anti-STING (Cell Signalling) and mouse anti-b-actin (Abcam, AC-15/ab49900).
For orientation: In western blotting, separated proteins are transferred to a membrane and probed.

Test [5] deals with DNA-cGAS STING pathway. Description: CXCL10 ELISA, THP1 cells with PEP302. Type of test: cell-based, human. The note with it: DNA stimulation. The method, then: Protein levels of the cytokines CXCL10 and TNF-α in supernatants, were measured using ELISA kits from R and D Systems (CXCL10; DY266) and (TNF-α; DY210) following the manufacturer's instructions.
Test [6] deals with DNA-cGAS STING pathway. In words: Type I IFN bioassay, THP1 cells stimulated with DNA or polyIC with/without PEP302. The test is classed as cell-based, human. The protocol: Bioactive human type I IFN was measured on cell supernatants by use of HEK-Blue™ IFN-a/b cells as reporter cells according to the manufacturer instructions (InvivoGen).
Setting [7] is: THP1 cells treated with peptide.
Setting [8] is: THP1 cells, after DNA and cGAMP stimulation, Western blotting.

Entries after “also recorded” stand apart in the source; their conditions may differ.

Take “DLCSVCEGKGLHRGHTKLAFGRKKRRQRRRPQ (listed as Homo sapiens) [PEP307, ZZ domain fragment peptide of human P62 C-terminally conjugated to TAT]”: the “type I IFN” value with STING-pathway [1] was “significant suppression”; in the test with STING-pathway [1] (listed as SEQ ID NO: 10), “capable of reducing”; in the test with STING-pathway [2] it was “significant suppression”; with STING-pathway [2] (listed as SEQ ID NO: 10) it was “capable of reducing”.

“EELTMAMSYVKDDIFRIYIKGRKKRRQRRRPQ (listed as Homo sapiens) [PEP305, PB1 domain fragment peptide of human P62 C-terminally conjugated to TAT]”: the “cytokine response of TNF-alpha” value is on record as “enhance” in the test with STING-pathway [3] and “very efficient in increasing” in the test with STING-pathway [3] (listed as SEQ ID NO: 9). Also, the CXCL10 expression entry with STING-pathway [4] was “very efficient in increasing; also recorded: increase”. Also, the “type I Interferon” value with STING-pathway [2] (human primary PBMCs, peptide pre-activation (25 μg/ml, 1 hour), co-stimulation with cGAMP or HT-DNA) is reported as “suppress”.

Consider “PGPCERLLSRVAALFPALRP GRKKRRQRRRPQ (PGPCERLLSRVAALFPALRPGRKKRRQRRRPQ; listed as Homo sapiens) [PEP302, PB1 domain fragment peptide of human P62]”, for which, in the test with STING (setting [7]), the STING dimerization entry is “may induce”, the “autophagy (LC3 turnover)” value is listed as “may induce; also recorded: seems to constitutively induce” and the p62 dimerization entry is “may induce; also recorded: induce p62 dimerization”. In the test on STING (THP1 cells treated with peptide alone), the “ubiquitination of STING” value was “may also induce; also recorded: potentially ubiquitination of STING”. Further, in the test with STING (setting [8]), the “phosphorylation of TBK1” value is “significantly reduced; also recorded: inhibit/reduce” and the “phosphorylation of p62” value was “significantly reduced; also recorded: inhibit/reduce”. In addition, the “phosphorylation of STING” value in the test with STING (THP1 cells, after DNA stimulation, Western blotting) is reported as “can inhibit; also recorded: may inhibit”. In the test on STING (THP1 cells, after cGAMP stimulation, Western blotting), the “phosphorylation of STING (phospho-STING)” value was “significantly reduce; also recorded: may inhibit”. Besides, the “DNA-STING-induced CXCL10 production” value in the test with DNA-cGAS STING pathway [5] was “reduces; also recorded: can inhibit”. Besides, in the test with DNA-cGAS STING pathway [6] (THP1 cells stimulated with DNA or polyIC with/without peptide), the “pathway specificity of type I IFN inhibition (DNA versus polyIC stimulation)” value was “may specifically target the DNA-cGAS STING pathway and not the polylC pathway”. For the same sequence, the “DNA-activated IFN (type I IFN bioassay)” value in the test on DNA-cGAS STING pathway [6] (THP1 cells, DNA stimulation) is “reduces”.

Take “SLTVKAYLLGKEDAAREIRRGRKKRRQRRRPQ (listed as Homo sapiens) [PEP300, N-terminal fragment peptide of human P62 C-terminally conjugated to TAT]”: the “type I IFN” value with STING-pathway [1] is given as “significant suppression”; in the test with STING-pathway [1] (listed as SEQ ID NO: 8), “capable of reducing”; with STING-pathway [2] it was “significant suppression”; in the test on STING-pathway [2] (listed as SEQ ID NO: 8), “capable of reducing”.
